Measurements as given in patent US20250223268A1, “4-Methylsulfonylbenzamide Compound, Preparation Method, Herbicidal Composition And Use” (Jiangsu Flag Chemical Industry Co., Ltd., priority 2022, published 2025).

Legend:
Assay type in all cases: in vivo
Echinochloa crusgalli [1] = experiment: Greenhouse herbicidal activity and crop safety comparison (Test Example 2); settings: Rate 150 g/ha
In short: (§1)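 Fresh weight inhibition, banded into grades A to E (E <20%), was rated 14-21 days after foliar spraying of 3-6 leaf plants, or 14-30 days after a soil spray applied 24 h post-sowing.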

Leptochloa chinensis [2] = experiment: as above; settings: Rate 150 g/ha
In short: as §1

[3] = system: Oryza sativa subsp. indica; experiment: as above; settings: Rate 150 g/ha
In short: as §1

[4] = system: Oryza sativa subsp. japonica; experiment: as above; settings: Rate 150 g/ha
In short: as §1

Cyperus iria = experiment: Greenhouse herbicidal activity assay, post-emergence; settings: Post-emergence test, rate 150 g a.i./hm^2, grade by fresh weight inhibition rate
In short: (§2)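 Weeds were sown in nutrient soil in 7 cm pots and grown in a growth chamber to the 3-6 leaf stage, then foliar-sprayed, air-dried and returned to the chamber. Fresh weight inhibition was scored 14-21 days later in bands from A (≥80% to 100%) to E (<20%).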

Digitaria sanguinalis = experiment: as above; settings: Post-emergence test, rate 150 g a.i./hm^2, grade by fresh weight inhibition rate
In short: as §2

Echinochloa crusgalli [5] = experiment: as above; settings: Post-emergence test, rate 150 g a.i./hm^2, grade by fresh weight inhibition rate
In short: as §2

Eclipta prostrata = experiment: as above; settings: Post-emergence test, rate 150 g a.i./hm^2, grade by fresh weight inhibition rate
In short: as §2

Leptochloa chinensis [6] = experiment: as above; settings: Post-emergence test, rate 150 g a.i./hm^2, grade by fresh weight inhibition rate
In short: as §2

Compound	inhibition at 150 g/ha (Echinochloa crusgalli [1]; Echinochloa crus-galli, read-out: Echinochloa crusgalli, control efficacy grading (fresh weight inhibition rate))	inhibition at 150 g/ha (Leptochloa chinensis [2]; Dinebra chinensis, read-out: Leptochloa chinensis, control efficacy grading (fresh weight inhibition rate))	Oryza sativa subsp. indica, grading of fresh weight inhibition rate (crop safety) [3]	Oryza sativa subsp. japonica, grading of fresh weight inhibition rate (crop safety) [4]	pest or weed control at 150 g/ha (Cyperus iria; Cyperus iria, read-out: Control efficacy grade, Cyperus iria)	pest or weed control at 150 g/ha (Digitaria sanguinalis; Digitaria sanguinalis, read-out: Control efficacy grade, Digitaria sanguinalis)	pest or weed control at 150 g/ha (Echinochloa crusgalli [5]; Echinochloa crus-galli, read-out: Control efficacy grade, Echinochloa crusgalli)	pest or weed control at 150 g/ha (Eclipta prostrata; Eclipta prostrata, read-out: Control efficacy grade, Eclipta prostrata)	pest or weed control at 150 g/ha (Leptochloa chinensis [6]; Dinebra chinensis, read-out: Control efficacy grade, Leptochloa chinensis)	Echinochloa crusgalli, control efficacy grading (fresh weight inhibition rate) (Echinochloa crusgalli [1])	Leptochloa chinensis, control efficacy grading (fresh weight inhibition rate) (Leptochloa chinensis [2])	Control efficacy grade, Cyperus iria (Cyperus iria)	Control efficacy grade, Digitaria sanguinalis (Digitaria sanguinalis)	Control efficacy grade, Echinochloa crusgalli (Echinochloa crusgalli [5])	Control efficacy grade, Eclipta prostrata (Eclipta prostrata)	Control efficacy grade, Leptochloa chinensis (Leptochloa chinensis [6])
CCCS(=O)(=O)c1c(S(C)(=O)=O)ccc(C(=O)Nc2nnco2)c1Cl [Compound 3-271, 2-chloro-4-(methylsulfonyl)-N-(1,3,4-oxadiazol-2-yl)-3-(propylsulfonyl)benzamide]	80 to 100%	80 to 100%	E (Fresh weight inhibition rate<20%)	E (Fresh weight inhibition rate<20%)	80 to 100%	80 to 100%	80 to 100%	80 to 100%	80 to 100%							
CCCS(=O)(=O)c1c(S(C)(=O)=O)ccc(C(=O)Nc2nnc(C3CC3)o2)c1Cl [Compound 3-619]			E (Fresh weight inhibition rate<20%)	E (Fresh weight inhibition rate<20%)						A (Fresh weight inhibition rate≥80% to 100%)	A (Fresh weight inhibition rate≥80% to 100%)	A (Fresh weight inhibition rate≥80% to 100%)	A (Fresh weight inhibition rate≥80% to 100%)	A (Fresh weight inhibition rate≥80% to 100%)	A (Fresh weight inhibition rate≥80% to 100%)	A (Fresh weight inhibition rate≥80% to 100%)
CCCS(=O)(=O)c1c(S(C)(=O)=O)ccc(C(=O)Nc2nnc(CC)o2)c1Cl [Compound 3-387]			E (Fresh weight inhibition rate<20%)	E (Fresh weight inhibition rate<20%)						A (Fresh weight inhibition rate≥80% to 100%)	A (Fresh weight inhibition rate≥80% to 100%)	A (Fresh weight inhibition rate≥80% to 100%)	A (Fresh weight inhibition rate≥80% to 100%)	A (Fresh weight inhibition rate≥80% to 100%)	A (Fresh weight inhibition rate≥80% to 100%)	A (Fresh weight inhibition rate≥80% to 100%)
CCCS(=O)(=O)c1c(S(C)(=O)=O)ccc(C(=O)Nc2nnc(C)o2)c1Cl [Compound 3-5]			E (Fresh weight inhibition rate<20%)	E (Fresh weight inhibition rate<20%)						A (Fresh weight inhibition rate≥80% to 100%)	A (Fresh weight inhibition rate≥80% to 100%)	A (Fresh weight inhibition rate≥80% to 100%)	A (Fresh weight inhibition rate≥80% to 100%)	A (Fresh weight inhibition rate≥80% to 100%)	A (Fresh weight inhibition rate≥80% to 100%)	A (Fresh weight inhibition rate≥80% to 100%)
C=CCS(=O)(=O)c1c(S(C)(=O)=O)ccc(C(=O)Nc2nnc(C3CC3)o2)c1Cl [Compound 3-690]			E (Fresh weight inhibition rate<20%)	E (Fresh weight inhibition rate<20%)						A (Fresh weight inhibition rate≥80% to 100%)	A (Fresh weight inhibition rate≥80% to 100%)	A (Fresh weight inhibition rate≥80% to 100%)	B (Fresh weight inhibition rate≥260% to <80%)	A (Fresh weight inhibition rate≥80% to 100%)	A (Fresh weight inhibition rate≥80% to 100%)	A (Fresh weight inhibition rate≥80% to 100%)
CS(=O)(=O)c1ccc(C(=O)Nc2nnco2)c(Cl)c1S(=O)(=O)CC1CC1 [Compound 3-302]			E (Fresh weight inhibition rate<20%)	E (Fresh weight inhibition rate<20%)						A (Fresh weight inhibition rate≥80% to 100%)	A (Fresh weight inhibition rate≥80% to 100%)	A (Fresh weight inhibition rate≥80% to 100%)	A (Fresh weight inhibition rate≥80% to 100%)	A (Fresh weight inhibition rate≥80% to 100%)	A (Fresh weight inhibition rate≥80% to 100%)	A (Fresh weight inhibition rate≥80% to 100%)
Cc1nnc(NC(=O)c2ccc(S(C)(=O)=O)c(S(=O)(=O)C3CC3)c2Cl)o1 [Compound 3-81]			E (Fresh weight inhibition rate<20%)	E (Fresh weight inhibition rate<20%)						A (Fresh weight inhibition rate≥80% to 100%)	A (Fresh weight inhibition rate≥80% to 100%)	A (Fresh weight inhibition rate≥80% to 100%)	A (Fresh weight inhibition rate≥80% to 100%)	A (Fresh weight inhibition rate≥80% to 100%)	A (Fresh weight inhibition rate≥80% to 100%)	A (Fresh weight inhibition rate≥80% to 100%)
C=CCS(=O)(=O)c1c(S(C)(=O)=O)ccc(C(=O)Nc2nnc(CC)o2)c1Cl [Compound 3-458]			E (Fresh weight inhibition rate<20%)	E (Fresh weight inhibition rate<20%)						A (Fresh weight inhibition rate≥80% to 100%)	A (Fresh weight inhibition rate≥80% to 100%)	A (Fresh weight inhibition rate≥80% to 100%)	A (Fresh weight inhibition rate≥80% to 100%)	A (Fresh weight inhibition rate≥80% to 100%)	A (Fresh weight inhibition rate≥80% to 100%)	A (Fresh weight inhibition rate≥80% to 100%)
CCc1nnc(NC(=O)c2ccc(S(C)(=O)=O)c(S(=O)(=O)C3CC3)c2Cl)o1 [Compound 3-423]			E (Fresh weight inhibition rate<20%)	E (Fresh weight inhibition rate<20%)						A (Fresh weight inhibition rate≥80% to 100%)	A (Fresh weight inhibition rate≥80% to 100%)	A (Fresh weight inhibition rate≥80% to 100%)	A (Fresh weight inhibition rate≥80% to 100%)	A (Fresh weight inhibition rate≥80% to 100%)	A (Fresh weight inhibition rate≥80% to 100%)	A (Fresh weight inhibition rate≥80% to 100%)
